The term IC50 denotes the concentration that inhibits the measured activity by half.

Assay [1] deals with N87-TM cells (N87-TM-1, N87-TM-2). The assay can be described thus: Cytotoxicity studies (MTS) on T-DM1 resistant N87-TM cells made in vitro. The class given is cell-based.
Protocol: N87 cells were passaged into two separate flasks and each flask was treated identically with respect to the resistance-generation protocol to enable biological duplicates. […] The procedure was intended to simulate the chronic, multi-cycle (on/off) dosing at maximally tolerated doses typically used for cytotoxic therapeutics in the clinic, followed by a recovery period. […] Drug selection pressure was removed after ˜3-4 months of cycle treatments when the level of resistance no longer increased after continued drug exposure. […] Data were collected from various thawed cryopreserved populations derived from a single selection, over approximately 1-2 years after model development to ensure consistency in the results.
Cells were seeded in 96-well plates at low density, then treated the following day with ADCs and unconjugated payloads at 3-fold serial dilutions at 10 concentrations in duplicate. Cells were incubated for 4 days in a humidified 37° C./5% CO2 incubator. The plates were harvested by incubating with CellTiter® 96 AQueous One MTS Solution (Promega, Madison, Wis.) for 1.5 hours and absorbance measured on a Victor plate reader (Perkin-Elmer, Waltham, Mass.) at wavelength 490 nm. IC50 values were calculated using a four-parameter logistic model with XLfit (IDBS, Bridgewater, N.J.).
Assay [2] has as its system N87-T-DM1 cells (Mouse #7, #17, #2). The assay can be described thus: Cytotoxicity studies (CellTiter Glo, 96 h) on cells relapsed from T-DM1 treatment in vivo. The note with it: for IC50: Mus musculus; for sensitivity of T-DM1 resistant cells generated in vivo: N87-T-DM1 cells compared to parental. Format: cell-based. How it is done:
(§1) Cells were incubated for 96 hours in a humidified 37° C./5% CO2 incubator.
A general note: ATP-based viability assays read luminescence as a measure of living cells.

In assay [3] the test system is N87 parental cells. The assay can be described thus: Cytotoxicity studies (CellTiter Glo, 96 h) on parental N87 cells (Example 15). The note with it: read-out: sensitivity to free payload (IC50), N87. The class given is cell-based. As to the method:
as §1

Assay [4] deals with HT29 colon carcinoma cells (EDB+FN negative). The assay can be described thus: In vitro cytotoxicity of anti-EDB ADCs (Cell Titer Glo, 4 days). Format: cell-based, human. Conditions: four days, ng/ml of antibody. As to the method: Proliferating WI38-VA13 or HT29 cells were harvested from culture flasks with non-enzymatic cell dissociation buffer and cultured overnight in 96-well plates (Corning) at 1000 cells/well in a humidified chamber (37° C., 5% CO2). […] In some experiments, cells were plated at 1500 cells/well and treated the same day. […] On harvest day, 50 μl of Cell Titer Glo (Promega) was added to the cells and incubated 0.5 hours at room temperature. […] Relative cell viability was determined as a percentage of untreated control wells. IC50 values were calculated using four-parameter logistic model #203 with XLfit v4.2 (IDBS).

Assay [5] deals with HT29. The assay can be described thus: HT29 colon CLX model. The class given is in vivo, mouse. The note with it: 3 mg/kg. An excerpt:
(§2) To generate CLX models, 8×10^6 to 10×10^6 cells of H-1975, HT29, or Ramos tumor lines were implanted into female athymic nude mice subcutaneously. Ramos and H-1975 cells for inoculation were suspended in 50% and 100% Matrigel (BD Biosciences), respectively. For the Ramos model, the animals received whole body irradiation (4 Gy) before cell inoculation to facilitate the establishment of tumors. When the average tumor volume reached approximately 160 to 320 mm^3, the animals were randomized into treatment groups, with 8-10 mice in each group. ADCs or vehicle (PBS) were administered intravenously on day 0 and then the animals were dosed once every 4 days for 4 to 8 doses. Tumors were measured once or twice weekly and tumor volume was calculated as volume (mm^3)=(width×width×length)/2.

Assay [6] relates to PDX-PAX-13565. The assay can be described thus: PDX-PAX-13565 pancreatic PDX model. The class given is in vivo, mouse. Conditions: 0.3, 1 and 3 mg/kg. The source says: (§3) To generate PDX models, tumors were collected from donor animals and tumor fragments approximately 3×3 mm were implanted subcutaneously into the flank of female athymic nude mice (for PDX-NSX-11122 model) or NOD SCID mice (for PDX-PAX-13565 and PDX-PAX-12534 models) by using a 10 gage trocar. When average tumor volume reached approximately 160 to 260 mm^3 the mice were randomized into treatment groups, with 7-10 mice in each group. ADCs or vehicle (PBS) dosing regime and administration route as well as tumor measurement procedures are the same as described above for CLX models.

Assay [7] concerns PDX-NSX-11122. The assay can be described thus: PDX-NSX-11122 NSCLC PDX model. The class given is in vivo, mouse.
Excerpt: as §3

Assay [8] deals with Ramos. The assay can be described thus: Ramos lymphoma CLX model. The class given is in vivo, mouse. Conditions: 3 mg/kg.
Excerpt: as §2

For assay [9], the system named is H-1975. The assay can be described thus: H-1975 NSCLC CLX model. The class given is in vivo, mouse.
Excerpt: as §2

For assay [10], the system named is PDX-PAX-12534. The assay can be described thus: PDX-PAX-12534 pancreatic PDX model. The class given is in vivo, mouse. Conditions: 0.3, 1 and 3 mg/kg.
Excerpt: as §3

The subject of assay [11] is N87-TM tumors. The assay can be described thus: In vivo efficacy in T-DM1 resistant N87-TM tumors in NSG mice. On the set-up: species or system mouse. The note with it: N87-TM-2 model; 6 and 10 mg/kg.
Protocol: (§4) In order to determine if the resistance observed in cell culture was recapitulated in vivo, parental N87 cells and N87-TM-2 cells were expanded and injected into the flanks of Female NOD scid gamma (NSG) immunodeficient mice (NOD. Cg-Prkdcscid II2rgtm1Wjl/SzJ) obtained from The Jackson Laboratory (Bar Harbor, Me.). Mice were injected subcutaneously in the right flank with suspensions of either N87 or N87-TM cells (7.5×10^6 cells per injection, with 50% Matrigel). Mice were randomized into study groups when tumors reached ˜0.3 g (˜250 mm^3). […] Tumors were measured weekly and mass calculated as volume=(width×width×length)/2. Time-to-event analysis (tumor doubling) was conducted and significance evaluated by Log-rank (Mantel-Cox) test.
The subject of assay [12] is N87 tumors. The assay can be described thus: In vivo efficacy in N87 tumors in NSG mice. On the set-up: species or system mouse. The note with it: N87 model; 6 and 10 mg/kg Q4D×4.
Protocol: as §4
Assay [13] concerns N87 gastric xenografts. The assay can be described thus: N87 gastric xenograft model. Format: in vivo, mouse. Conditions: IV Q4d×4.
Protocol: (§5) For each model described below the first dose was given on Day 1. The tumors were measured at least once a week and their volume was calculated with the formula: tumor volume (mm^3)=0.5×(tumor width^2)(tumor length). The mean tumor volumes (±S. E. M.) for each treatment group were calculated having a maximum of 8-10 animals and a minimum of 6-8 animals to be included.
When the tumors reached a volume of 250 to 450 mm^3, the tumors were staged to ensure uniformity of the tumor mass among various treatment groups.
For assay [14], the system named is 37622 patient-derived xenografts. Conditions: 10 mg/kg, Q4d×4.
Protocol: as §5
The 37622 patient-derived xenografts were subcutaneously passaged in vivo as fragments from animal to animal in nude (Nu/Nu) female mice. When the tumors reached a volume of 150 to 300 mm^3, they were staged to ensure uniformity of the tumor size among various treatment groups.
Assay [15] deals with JIMT-1 breast xenografts. Conditions: even at 6 mg/kg, IV Q4d×4.
Protocol: as §5
To generate xenografts, nude (Nu/Nu) female mice were implanted subcutaneously with 5×10^6 JIMT-1 cells (DSMZ# ACC-589) in 50% Matrigel (BD Biosciences). When the tumors reached a volume of 200 to 250 mm^3, the tumors were staged to ensure uniformity of the tumor mass among various treatment groups.
Assay [16] concerns N87 cell line xenograft tumors. The assay can be described thus: Bystander effect, immunohistocytochemistry (pHH3, human IgG) of N87 xenograft tumors. The note with it: single dose T-DM1 6 mg/kg or T-vc0101 3 mg/kg, tumors harvested 96 hours later. The class given is in vivo, mouse.
Excerpt: Tumor sections were stained for human IgG to detect ADC bound to tumor cells and phosphhistone H3 (pHH3) to detect mitotic cells as readout of the proposed mechanism of action for the payloads of both ADCs.
The test system of assay [17] is 144580 breast patient-derived xenografts. The note with it: all doses tested (1, 5, 3 and 6 mg/kg), Q4d×4.
Protocol: as §5
The 144580 breast patient-derived xenografts were subcutaneously passaged in vivo as fragments from animal to animal in nude (Nu/Nu) female mice. When the tumors reached a volume of 150 to 300 mm^3, they were staged to ensure uniformity of the tumor size among various treatment groups.
Assay [18] deals with N87 xenografts. The assay can be described thus: T-DM1 resistance generated in vivo in N87 xenografts and follow-on treatment. Details: species or system mouse. Conditions: […] weekly.
Protocol: Tumors were measured twice per week or weekly and mass calculated as volume=(width×width×length)/2.
Where [19] appears, read: read-out: sensitivity to free payload (IC50), N87-T-DM1_Ms2.
Setting [20] is: read-out: sensitivity to free payload (IC50), N87-T-DM1_Ms7.
Where [21] appears, read: read-out: sensitivity to free payload (IC50), N87-T-DM1_Ms17.

Entries after “also recorded” stand apart in the source; their conditions may differ. Like-named read-outs stand apart in the source and are kept apart here. Square brackets hold non-standard residues; d marks the D form. Peptide text beside a SMILES is read from it. * marks the point of attachment. Dolaproine = CO[C@@H]([C@@H]1CCCN1)[C@@H](C)C(=O)O; Dil = CC[C@H](C)[C@H](NC)[C@@H](CC(=O)O)OC; Doe = c1ccc(C[C@H](N*)c2nccs2)cc1; Aib = CC(C)(N)C(=O)O

With `COc1cc2cc(c1Cl)N(C)C(=O)C[C@H](OC(=O)[C@H](C)N(C)C(=O)CCS)[C@]1(C)O[C@H]1[C@H](C)[C@@H]1C[C@@](O)(NC(=O)O1)[C@H](OC)/C=C/C=C(\C)C2` [DM1], the “sensitivity of N87-TM cells” value in assay [1] is “retained sensitivity”.

On to `COc1cccc2c1C(=O)c1c(O)c3c(c(O)c1C2=O)C[C@@](O)(C(=O)CO)C[C@@H]3O[C@H]1C[C@H](N)[C@H](O)[C@H](C)O1` [Doxorubicin], for which the concentration for half-maximal inhibition (IC50) in assay [2] (setting [19]) turned out to be 46 nM; in assay [2] (setting [20]), 79 nM; in assay [2] (setting [21]), 34 nM; in assay [3], 48 nM. In addition, the “sensitivity of T-DM1 resistant cells generated in vivo” value in assay [2] is “No resistance”. The “sensitivity of N87-TM cells” value in [1] is “lack of cross-resistance”.

`CC[C@H](C)[C@@H]([C@@H](CC(=O)N1CCC[C@H]1[C@H](OC)[C@@H](C)C(=O)N[C@@H](Cc1ccccc1)c1nccs1)OC)N(C)C(=O)[C@@H](NC(=O)C(C)(C)N)C(C)C` [compound 0101, 2-methylalanyl-N-[(3R,4S,5S)-3-methoxy-1-{(2S)-2-[(1R,2R)-1-methoxy-2-methyl-3-oxo-3-{[(1 S)-2-phenyl-1-(1,3-thiazol-2-yl)ethyl]amino}propyl]pyrrolidin-1-yl}-5-methyl-1-oxoheptan-4-yl]-N-methyl-L-valinamide] (H-[Aib]V[Dil][Dolaproine]-Doe): the 50% inhibitory concentration (IC50) came to 0.4 nM in [2] (setting [19]), 0.6 nM in [2] (setting [20]), 0.28 nM in [2] (setting [21]) and 0.5 nM in assay [3]. Further, the “sensitivity of T-DM1 resistant cells generated in vivo” value in assay [2] is recorded as “surprisingly sensitive; also recorded: not resistant”. Further, in assay [1], the “sensitivity of N87-TM cells” value is on record as “retained sensitivity”.

In the case of `CC(=O)O[C@H]1C(=O)[C@@]2(C)[C@H]([C@H](OC(=O)c3ccccc3)[C@]3(O)C[C@H](OC(=O)[C@H](O)[C@@H](NC(=O)c4ccccc4)c4ccccc4)C(C)=C1C3(C)C)[C@]1(OC(C)=O)CO[C@@H]1C[C@@H]2O` [paclitaxel], in [1], the “sensitivity of N87-TM cells” value is listed as “lack of cross-resistance”.

For EDB-L19-diS-DM1, the “Avg IC50” value in assay [4] is 237 ng/mL.

In the case of “EDB-L19-vc-0101: anti-EDB antibody L19 conventionally conjugated to vc-0101”, the tumor response entry in assay [5] is given as “tumor regression”; in assay [6], “tumor regression in a dose dependent manner”; in [7] (1 mg/kg), “delayed tumor growth”; in assay [7] (3 mg/kg) it was “complete regressions”; in assay [7] (3 mg/kg and […]), “tumor regression”; in [8] it was “tumor regression”. Further, the tumor response result is given as “tumor regressions” in assay [9] (3 mg/kg); “tumor regression” in [9] (3 mg/kg, and as low as […]); “tumor regression in a dose dependent manner” in [9] (0.3, 1 and 3 mg/kg); “tumor regression” in assay [9] (highest doses evaluated (3 mg/kg ADC1; 1 mg/kg ADC9)); “tumor regression in a dose dependent manner” in assay [10]. The “Avg IC50” value in assay [4] is 15,346 ng/ml. The “efficacy compared to isotype negative control ADCs and disulfide linker ADCs” value in [7] (1 and 3 mg/kg vs 10 mg/kg EDB-L19-diS-DM1, 5 mg/kg EDB-L19-diS-C2OCO-1569) was “greater efficacy”.

In the case of T-DM1, in assay [11], the “prevention of tumor doubling” value is “failed to do so”. In assay [12], the “mice in which tumor doubling was prevented for at least 60 days” value is on record as greater than 50%. Further, the tumor response result in assay [13] (10 mg/kg) was “complete regression of tumors”; in assay [13] (1 and 3 mg/kg), “delayed tumor growth”; in assay [14], “only provided some therapeutic benefit”; in assay [15] it was “inactive”; in [17], “ineffective”. For the same molecule, the bystander effect result in assay [16] is given as “is not”. In addition, the “mice responding to initial T-DM1 treatment” value in [18] was 17 out of 20.
